Measured values reported in patent US6410575B1, “Viral treatment” (The Procter & Gamble Company, priority 1999, dated 2002).
Several values for one entry are separate records, joined by “and”; a condition that tells them apart may be missing. Identical values can stand only once.

Legend:
HIV-1 protease = molecular target: T1, HIV-1 protease (Human immunodeficiency virus type 1 group M subtype B, UniProt P04585); assay: Protease inhibition assay (fluorometric); type: biochemical
T1 construct: use of the fluorometric, HIV-1 protease assay; purchased Bachem
Procedure: Protease inhibition is evaluated using a fluorometric method. Enzyme (Bachem) is diluted to 116 μgm/ml in 50 mM NaOAC, 5 mM DTT, 2 mM EDTA, 10% glycerol (pH 5.0) and stored as 10 μl samples at −20° C. HIV protease substrates 1 (Molecular Probes) are diluted to a working concentration of 0.32 nmoles/μl. Enzyme (20 μl) and drug (20 μl) are added to each well of a microtiter plate as appropriate. Positive and negative controls are evaluated in parallel. Fluorescene is quantitated on Labsystems Fluroskan II using 355 nm/460 nm at 37° C. at time zero and at 30 minute intervals for 2 hours. In instances where auto-fluorescence precludes use of the fluorometric, HIV-1 protease assay or confirmation of a result is required, an HPLC based protease assay can be employed.
(§1) The mechanism of action of the (5-aryl-1,2,4-thiadiazol)-3-yl thiourea derivatives or (5-aryl-1,2,4-thiadizol)-3-yl urea derivatives is not known.

HIV-1 integrase = HIV-1 integrase (Human immunodeficiency virus type 1 group M subtype B, UniProt P04585); assay: Integrase inhibition assay (autoradiography); type: biochemical
Excerpt: A biochemical integrase assay described by Craigie et at (HIV, vol. 2: A practical Approach) Biochemistry, Molecular Biology and Drug Discovery, Ed. J. Kam 1995) to screen agents for their ability to inhibit HIV-1 integrase can be used. In this system, a kinased oligonucleotide serves as the target of 3′ processing and the subsequent strand transfer reaction. The 3′ processing reaction involves the removal of 2 nucleotides from the 3′ ends of the substrate. This is followed by the strand transfer reaction in which the 3′ ends are joined to the exposed 5′ ends. The 20 μl reaction mixture contains 25 mM MOPS (pH 7.2), […] BSA, 10 mM β-mercaptoethanol, 10% glycerol; 7.5 mM MnCl2, 25 nM (7 ng) substrate (Oligo's Etc., Wilsonville, Oreg.) and 200 nM (128 ng) integrase (NIAID AIDS Research and Reference Reagent Program, Bethesda, Md.). The reaction proceeds at 37° C. for 1-2 hours and is terminated by the addition of 20 μl of sequencing stop solution (USB Amersham, Arlington Heights, Ill.). The reaction products are visualized by autoradiography following electrophoresis in 15% polyacrylamide 6M Urea gel. The substrate migrates as a 30 mer, the product of 3′ processing migrates as an N-2 band and the strand transfer products migrate more slowly at various sizes larger than the substrate.
as §1

HEPG2 2.2.15 = assay: Toxicity values in the hepatitis B test; type: cell-based; set-up: Toxicity Values, sample / Toxicity Values, mean: unit not given here
HIV-2 cell line, CEMROD = assay: Long term in vitro study, CEMROD; type: cell-based
Procedure: (§2) Toxicity quantification involves the XTT-based evaluation. Assays were designed to characterize the long term effects of the compounds on virus production and to characterize the longer term effects of the compounds on virus production from chronically HIV infected cells.
(§3) CEM-SS cells chronically infected with HIV isolate, for example SKI (CEM-SKI) are cultured in RPMI1640 tissue culture medium supplemented with 10% fetal bovine serum and antibiotics. […] CEM-SKI or other infected cells with no added drug are used as the control cells.
(§4) Cells are allowed to grow to a density of approximately 1×10^6 cells/ml and are then passaged at a 1:10 dilution. […] The drug concentration in the flask is then increased two-fold and the cells maintained as above.
(§5) The cell populations contain integrated copies of the HIV genome and constitutively produce HIV at relatively high levels or are latently infected and only produce virus after stimulation with phorbol esters, tumor necrosis factor or IL6(U1 and ACH2). Reductions in virus products were observed when quantifying supernatant reverse transcriptase activity.
The results with CEMROD cells was reported at weekly intervals.
The CEMROD cell line is a viral strain of the CEMSS cell line.

[1] = system: HIV-1 cell line, U937IIIB; assay: Long term in vitro study, U937IIIB; type: cell-based
Procedure: as §2, §3, §4, §5
The results with U937IIIB cells were reported at weekly intervals.
The U937IIIB cell line is viral strain of the U937 cell line.

NC(=S)Nc1nsc(-c2ccccc2)n1
EC50 (HIV-1 protease): > 423 µM
activity as a protease inhibitor (HIV-1 protease): did not show activity
remaining activity at 0.001 µM (HIV-1 protease; 1 nM, read-out: Protease inhibition, % no drug control): 100%
remaining activity at 0.01 µM (HIV-1 protease; 10 nM, read-out: Protease inhibition, % no drug control): 103%
remaining activity at 0.1 µM (HIV-1 protease; 100 nM, read-out: Protease inhibition, % no drug control): 99.9%
remaining activity at 1 µM (HIV-1 protease; read-out: Protease inhibition, % no drug control): 88%
EC50 (HIV-1 integrase): > 423 µM
activity as an integrase inhibitor (HIV-1 integrase): did not show activity
remaining activity at 1 µg/mL (HIV-1 integrase; 1 μg/ml, read-out: HIV-1 integrase inhibition, % no drug control): 108%
remaining activity at 10 µg/mL (HIV-1 integrase; 10 μg/ml, read-out: HIV-1 integrase inhibition, % no drug control): 117%
remaining activity at 100 µg/mL (HIV-1 integrase; 100 μg/ml, read-out: HIV-1 integrase inhibition, % no drug control): 106%
remaining activity at 0.1 µg/mL (HIV-1 integrase; read-out: HIV-1 integrase inhibition, % no drug control): 98.8%
% cell control (HEPG2 2.2.15; 0.64 μg/ml): 92.3%
Toxicity Values, mean (HEPG2 2.2.15; 0.64 μg/ml): 1.021
Toxicity Values, sample (HEPG2 2.2.15; 0.64 μg/ml): 0.985 and 0.999 and 1.079
% cell control (HEPG2 2.2.15; 2 μg/ml): 83.0%
Toxicity Values, mean (HEPG2 2.2.15; 2 μg/ml): 0.919
Toxicity Values, sample (HEPG2 2.2.15; 2 μg/ml): 0.881 and 0.959 and 0.916
% cell control (HEPG2 2.2.15; 6.4 μg/ml): 95.6%
Toxicity Values, mean (HEPG2 2.2.15; 6.4 μg/ml): 1.058
Toxicity Values, sample (HEPG2 2.2.15; 6.4 μg/ml): 0.940 and 1.218 and 1.015
% cell control (HEPG2 2.2.15; 20 μg/ml): 84.2%
Toxicity Values, mean (HEPG2 2.2.15; 20 μg/ml): 0.932
Toxicity Values, sample (HEPG2 2.2.15; 20 μg/ml): 0.966 and 0.921 and 0.909
% cell control (HEPG2 2.2.15; 64 μg/ml): 89.5%
Toxicity Values, mean (HEPG2 2.2.15; 64 μg/ml): 0.991
Toxicity Values, sample (HEPG2 2.2.15; 64 μg/ml): 0.962 and 1.037 and 0.973
% cell control (HEPG2 2.2.15; 200 μg/ml): 76.7%
Toxicity Values, mean (HEPG2 2.2.15; 200 μg/ml): 0.849
Toxicity Values, sample (HEPG2 2.2.15; 200 μg/ml): 0.818 and 0.928 and 0.800
TC50 (HEPG2 2.2.15; HEPG2 2.2.15): > 200 µg/mL
TC50 (HEPG2 2.2.15; HEPG2 2.2.15, replicate experiment): > 200 µg/mL
virus production (supernatant reverse transcriptase activity) (HIV-2 cell line, CEMROD; 7 μg/ml, day 4): 6593
virus production (supernatant reverse transcriptase activity) (HIV-2 cell line, CEMROD; 7 μg/ml, day 11): 8676
virus production (supernatant reverse transcriptase activity) (HIV-2 cell line, CEMROD; 7 μg/ml, day 18): 10912
virus production (supernatant reverse transcriptase activity) (HIV-2 cell line, CEMROD; 7 μg/ml, day 25): 9356
virus production (supernatant reverse transcriptase activity) (HIV-2 cell line, CEMROD; 7 μg/ml, day 32): 8803
virus production (supernatant reverse transcriptase activity) (HIV-2 cell line, CEMROD; 7 μg/ml, day 39): 6655
virus production (supernatant reverse transcriptase activity) (HIV-2 cell line, CEMROD; 7 μg/ml, day 46): 8280
virus production (supernatant reverse transcriptase activity) (HIV-2 cell line, CEMROD; 7 μg/ml, day 53): 7549
virus production (supernatant reverse transcriptase activity) (HIV-2 cell line, CEMROD; 15 μg/ml, day 4): 6815
virus production (supernatant reverse transcriptase activity) (HIV-2 cell line, CEMROD; 15 μg/ml, day 11): 8202
virus production (supernatant reverse transcriptase activity) (HIV-2 cell line, CEMROD; 15 μg/ml, day 18): 10389
virus production (supernatant reverse transcriptase activity) (HIV-2 cell line, CEMROD; 15 μg/ml, day 25): 7816
virus production (supernatant reverse transcriptase activity) (HIV-2 cell line, CEMROD; 15 μg/ml, day 32): 6672
virus production (supernatant reverse transcriptase activity) (HIV-2 cell line, CEMROD; 15 μg/ml, day 39): 7087
virus production (supernatant reverse transcriptase activity) (HIV-2 cell line, CEMROD; 15 μg/ml, day 46): 6457
virus production (supernatant reverse transcriptase activity) (HIV-2 cell line, CEMROD; 15 μg/ml, day 53): 6544
virus production (supernatant reverse transcriptase activity) (HIV-2 cell line, CEMROD; 30 μg/ml, day 4): 6626
virus production (supernatant reverse transcriptase activity) (HIV-2 cell line, CEMROD; 30 μg/ml, day 11): 6582
virus production (supernatant reverse transcriptase activity) (HIV-2 cell line, CEMROD; 30 μg/ml, day 18): 7494
virus production (supernatant reverse transcriptase activity) (HIV-2 cell line, CEMROD; 30 μg/ml, day 25): 4421
virus production (supernatant reverse transcriptase activity) (HIV-2 cell line, CEMROD; 30 μg/ml, day 32): 4056
virus production (supernatant reverse transcriptase activity) (HIV-2 cell line, CEMROD; 30 μg/ml, day 39): 2118
virus production (supernatant reverse transcriptase activity) (HIV-2 cell line, CEMROD; 30 μg/ml, day 46): 4117
virus production (supernatant reverse transcriptase activity) (HIV-2 cell line, CEMROD; 30 μg/ml, day 53): 4779
virus production (supernatant reverse transcriptase activity) ([1]; 7 μg/ml, day 4): 9368
virus production (supernatant reverse transcriptase activity) ([1]; 7 μg/ml, day 11): 8889
virus production (supernatant reverse transcriptase activity) ([1]; 7 μg/ml, day 18): 7566
virus production (supernatant reverse transcriptase activity) ([1]; 7 μg/ml, day 25): 5781
virus production (supernatant reverse transcriptase activity) ([1]; 7 μg/ml, day 32): 3414
virus production (supernatant reverse transcriptase activity) ([1]; 7 μg/ml, day 39): 5346
virus production (supernatant reverse transcriptase activity) ([1]; 7 μg/ml, day 46): 4085
virus production (supernatant reverse transcriptase activity) ([1]; 7 μg/ml, day 53): 4832
virus production (supernatant reverse transcriptase activity) ([1]; 15 μg/ml, day 4): 9710
virus production (supernatant reverse transcriptase activity) ([1]; 15 μg/ml, day 11): 8025
virus production (supernatant reverse transcriptase activity) ([1]; 15 μg/ml, day 18): 5435
virus production (supernatant reverse transcriptase activity) ([1]; 15 μg/ml, day 25): 6064
virus production (supernatant reverse transcriptase activity) ([1]; 15 μg/ml, day 32): 2479
virus production (supernatant reverse transcriptase activity) ([1]; 15 μg/ml, day 39): 4377
virus production (supernatant reverse transcriptase activity) ([1]; 15 μg/ml, day 46): 3867
virus production (supernatant reverse transcriptase activity) ([1]; 15 μg/ml, day 53): 3510
virus production (supernatant reverse transcriptase activity) ([1]; 30 μg/ml, day 4): 9549
virus production (supernatant reverse transcriptase activity) ([1]; 30 μg/ml, day 11): 7639
virus production (supernatant reverse transcriptase activity) ([1]; 30 μg/ml, day 18): 3551
virus production (supernatant reverse transcriptase activity) ([1]; 30 μg/ml, day 25): 4611
virus production (supernatant reverse transcriptase activity) ([1]; 30 μg/ml, day 32): 1855
virus production (supernatant reverse transcriptase activity) ([1]; 30 μg/ml, day 39): 2410
virus production (supernatant reverse transcriptase activity) ([1]; 30 μg/ml, day 46): 1550
virus production (supernatant reverse transcriptase activity) ([1]; 30 μg/ml, day 53): 1819
